Experimental data taken from US20060141054A1, “Metal coordinated compositions” (priority 2004, published 2006).

Legend:
[1] = Equilibrium/stability constants of zinc complexes; type: physicochemical; conditions: approximated
[2] = water, 0.15 m kcl
Procedure: (§1) Determination of pKa and log P was done by potentiometry and spectrophotometry. The potentiometric method includes the use of expert software to calculate pKa and log P from simple acid and base titrations of the analytes. The pKa was first determined by weighing approximately 2 mg of pure substance into an assay vial. […] The solution was then titrated with acid (0.5N HCl) or base (0.5N NaOH) to the final pH.
(§2) A minimum of three ratios of water/DMSO was titrated to obtain psKa (apparent pKa in the presence of cosolvent). The aqueous pKa was determined by extrapolation using the Yasuda-Shedlovsky technique.

[3] = Log D at pH 7.4 (octanol/water); type: physicochemical
Procedure: Log D is the log distribution coefficient at a particular pH (Equation 8). […] Log D=log10(Distribution Coefficient) Equation 8
as §1
The log P was determined by a titration in the presence of octanol (water saturated). The pKa in water and the apparent pKa in the presence of octanol (poKa) were compared and the log P determined. Ion-pairing (partitioning of a charged species into octanol, termed log P^+ or log P^−) were determined with an additional titration in the presence of another volume of octanol. Using experimentally determined pKa and log P, a drug lipophilicity profile (log D. vs. pH) was calculated. The log D7.4 was determined from this profile at pH 7.4.

[4] = physchem; conditions: water, 0.15 m kcl
Procedure: as §1, §2

[5] = Equilibrium/stability constants of magnesium complexes; type: physicochemical; conditions: estimated from literature precedents of similar compounds

Molecule: N[C@@H](Cc1ccccc1)C(=O)O.[Zn] [phenylalanine-zinc]
- cumulative binding constant, β2 [1]: 8.5

Molecule: N[C@@H](Cc1cc(I)c(Oc2ccc(O)c(I)c2)c(I)c1)C(=O)[O-].N[C@@H](Cc1cc(I)c(Oc2ccc(O)c(I)c2)c(I)c1)C(=O)[O-].[Zn+2] [Bis(triiodothyroninato)zinc]
- pKa (first listed) [2]: 6.66
- pKa (second listed) [2]: 6.42
- Log D7.4 [3]: 3.43

Molecule: N[C@@H](Cc1cc(I)c(Oc2ccc(O)c(I)c2)c(I)c1)C(=O)O [Triiodothyronine]
- logD ([3]; Method Potentiometric, read-out: Log D7.4): 2.8
- pKa ([4]; pKa (first listed)): 8.41
- pKa ([4]; pKa (second listed)): 8.07

Molecule: Bis(acycloguanosinato)magnesium
- log Keq (estimated) [5]: 1.6
